Measurements from patent EP2072509A1, “1-Aryl-1H-quinoline-2-ones: process for their production and their use as anti-inflammatory agents” (Bayer Schering Pharma Aktiengesellschaft, priority 2007, dated 2009).

Experiments:
[1] = molecular target: T1, progesterone receptor (PR) (Homo sapiens, UniProt P06401); experiment: Binding to recombinantly produced progesterone receptor
T1 construct: made in house
T1 sequence (P06401 1-933): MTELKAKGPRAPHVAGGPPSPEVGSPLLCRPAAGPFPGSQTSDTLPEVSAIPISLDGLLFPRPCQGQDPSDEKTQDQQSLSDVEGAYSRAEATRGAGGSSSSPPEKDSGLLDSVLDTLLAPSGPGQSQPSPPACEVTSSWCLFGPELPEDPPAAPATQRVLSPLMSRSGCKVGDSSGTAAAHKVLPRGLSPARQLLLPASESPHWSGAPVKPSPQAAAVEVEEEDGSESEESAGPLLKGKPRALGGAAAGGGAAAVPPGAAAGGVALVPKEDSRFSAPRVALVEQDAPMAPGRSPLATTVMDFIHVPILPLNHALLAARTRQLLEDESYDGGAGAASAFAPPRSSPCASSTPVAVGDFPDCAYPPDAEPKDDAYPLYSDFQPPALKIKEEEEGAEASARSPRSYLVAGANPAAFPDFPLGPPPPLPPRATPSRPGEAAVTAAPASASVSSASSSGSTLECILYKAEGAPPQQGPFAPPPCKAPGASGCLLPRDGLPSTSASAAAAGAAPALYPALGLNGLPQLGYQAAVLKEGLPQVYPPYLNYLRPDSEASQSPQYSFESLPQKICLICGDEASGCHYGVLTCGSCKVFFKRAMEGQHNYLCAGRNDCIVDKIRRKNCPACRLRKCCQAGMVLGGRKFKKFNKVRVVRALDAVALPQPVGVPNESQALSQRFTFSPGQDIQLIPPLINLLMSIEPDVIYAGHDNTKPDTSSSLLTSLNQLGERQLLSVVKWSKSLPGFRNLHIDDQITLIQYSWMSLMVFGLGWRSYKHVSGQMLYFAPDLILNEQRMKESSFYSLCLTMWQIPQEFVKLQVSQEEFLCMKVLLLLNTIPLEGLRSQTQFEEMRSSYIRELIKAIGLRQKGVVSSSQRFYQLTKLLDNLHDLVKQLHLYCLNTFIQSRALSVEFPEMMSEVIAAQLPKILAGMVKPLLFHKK
Source text: (§1) The binding of the substances to the glucocorticoid receptor (GR) and other steroid hormone receptors (mineral corticoid receptor (MR), progesterone receptor (PR) and androgen receptor (AR)) is examined with the aid of recombinantly produced receptors. Cytosol preparations of Sf9 cells, which had been infected with recombinant baculoviruses, which code for the GR, are used for the binding studies. In comparison to reference substance [^3H]-dexamethasone, the substances show a high to very high affinity to GR.

[2] = molecular target: ER; experiment: Binding to ER (steroid receptor selectivity profile)
[3] = molecular target: T2, glucocorticoid receptor (GR) (Homo sapiens, UniProt P04150); experiment: Binding to recombinantly produced glucocorticoid receptor (cytosol of baculovirus-infected Sf9 cells, [3H]-dexamethasone as reference); details: recombinant GR, Sf9 cytosol preparations
T2 construct: made in house; host or cells: Sf9 cells infected with recombinant baculovirus (cytosol preparation)
T2 sequence (P04150 1-777): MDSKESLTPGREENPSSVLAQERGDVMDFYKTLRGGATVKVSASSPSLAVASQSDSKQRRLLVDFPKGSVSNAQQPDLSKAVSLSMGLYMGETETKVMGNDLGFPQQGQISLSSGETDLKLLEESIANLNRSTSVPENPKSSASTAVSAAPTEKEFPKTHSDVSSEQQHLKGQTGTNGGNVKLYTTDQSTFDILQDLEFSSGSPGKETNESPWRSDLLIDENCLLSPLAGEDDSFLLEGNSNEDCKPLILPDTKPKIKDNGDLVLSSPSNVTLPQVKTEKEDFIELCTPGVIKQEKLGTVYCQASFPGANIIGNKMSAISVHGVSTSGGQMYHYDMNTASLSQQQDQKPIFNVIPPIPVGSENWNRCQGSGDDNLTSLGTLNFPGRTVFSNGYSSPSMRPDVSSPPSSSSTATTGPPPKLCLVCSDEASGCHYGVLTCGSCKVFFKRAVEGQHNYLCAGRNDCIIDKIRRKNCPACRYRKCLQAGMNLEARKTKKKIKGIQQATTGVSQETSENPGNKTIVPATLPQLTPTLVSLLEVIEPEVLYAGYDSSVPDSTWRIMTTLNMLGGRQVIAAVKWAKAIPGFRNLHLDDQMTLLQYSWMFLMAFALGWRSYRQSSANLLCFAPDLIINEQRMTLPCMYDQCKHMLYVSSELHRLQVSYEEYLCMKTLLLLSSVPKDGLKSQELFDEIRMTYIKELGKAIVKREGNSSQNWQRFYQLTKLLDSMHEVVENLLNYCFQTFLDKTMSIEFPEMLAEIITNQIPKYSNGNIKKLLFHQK
Source text: as §1

[4] = molecular target: T3, mineral corticoid receptor (MR) (Homo sapiens, UniProt P08235); experiment: Binding to recombinantly produced mineral corticoid receptor
T3 construct: made in house
T3 sequence (P08235 1-984): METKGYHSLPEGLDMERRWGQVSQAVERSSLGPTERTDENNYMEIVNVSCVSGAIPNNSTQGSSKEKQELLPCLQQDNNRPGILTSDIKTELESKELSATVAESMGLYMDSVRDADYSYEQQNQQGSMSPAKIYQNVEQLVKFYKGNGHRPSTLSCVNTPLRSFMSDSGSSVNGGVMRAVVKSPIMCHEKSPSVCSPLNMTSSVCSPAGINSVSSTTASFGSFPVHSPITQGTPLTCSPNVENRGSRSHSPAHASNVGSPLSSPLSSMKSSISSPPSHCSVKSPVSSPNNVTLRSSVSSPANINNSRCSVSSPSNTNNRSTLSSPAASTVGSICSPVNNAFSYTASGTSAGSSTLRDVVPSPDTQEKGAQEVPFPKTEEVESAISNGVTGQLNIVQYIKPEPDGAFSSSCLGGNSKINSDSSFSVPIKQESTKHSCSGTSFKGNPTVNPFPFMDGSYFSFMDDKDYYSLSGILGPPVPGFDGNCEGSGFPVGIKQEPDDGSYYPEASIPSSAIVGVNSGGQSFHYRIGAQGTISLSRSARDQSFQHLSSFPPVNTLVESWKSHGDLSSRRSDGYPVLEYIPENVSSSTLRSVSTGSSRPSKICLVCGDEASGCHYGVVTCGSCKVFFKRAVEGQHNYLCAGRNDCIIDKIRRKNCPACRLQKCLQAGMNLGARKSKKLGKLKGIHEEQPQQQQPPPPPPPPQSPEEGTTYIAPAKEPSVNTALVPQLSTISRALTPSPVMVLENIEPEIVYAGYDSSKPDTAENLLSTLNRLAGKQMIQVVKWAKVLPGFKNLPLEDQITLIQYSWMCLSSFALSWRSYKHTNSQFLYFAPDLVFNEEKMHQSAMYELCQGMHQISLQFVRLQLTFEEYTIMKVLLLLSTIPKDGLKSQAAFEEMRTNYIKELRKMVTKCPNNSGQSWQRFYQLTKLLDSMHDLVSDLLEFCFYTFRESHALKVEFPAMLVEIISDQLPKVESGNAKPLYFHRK
Source text: as §1

[5] = molecular target: T4, androgen receptor (AR) (Homo sapiens, UniProt P10275); experiment: Binding to recombinantly produced androgen receptor
T4 construct: made in house
T4 sequence (P10275 1-920): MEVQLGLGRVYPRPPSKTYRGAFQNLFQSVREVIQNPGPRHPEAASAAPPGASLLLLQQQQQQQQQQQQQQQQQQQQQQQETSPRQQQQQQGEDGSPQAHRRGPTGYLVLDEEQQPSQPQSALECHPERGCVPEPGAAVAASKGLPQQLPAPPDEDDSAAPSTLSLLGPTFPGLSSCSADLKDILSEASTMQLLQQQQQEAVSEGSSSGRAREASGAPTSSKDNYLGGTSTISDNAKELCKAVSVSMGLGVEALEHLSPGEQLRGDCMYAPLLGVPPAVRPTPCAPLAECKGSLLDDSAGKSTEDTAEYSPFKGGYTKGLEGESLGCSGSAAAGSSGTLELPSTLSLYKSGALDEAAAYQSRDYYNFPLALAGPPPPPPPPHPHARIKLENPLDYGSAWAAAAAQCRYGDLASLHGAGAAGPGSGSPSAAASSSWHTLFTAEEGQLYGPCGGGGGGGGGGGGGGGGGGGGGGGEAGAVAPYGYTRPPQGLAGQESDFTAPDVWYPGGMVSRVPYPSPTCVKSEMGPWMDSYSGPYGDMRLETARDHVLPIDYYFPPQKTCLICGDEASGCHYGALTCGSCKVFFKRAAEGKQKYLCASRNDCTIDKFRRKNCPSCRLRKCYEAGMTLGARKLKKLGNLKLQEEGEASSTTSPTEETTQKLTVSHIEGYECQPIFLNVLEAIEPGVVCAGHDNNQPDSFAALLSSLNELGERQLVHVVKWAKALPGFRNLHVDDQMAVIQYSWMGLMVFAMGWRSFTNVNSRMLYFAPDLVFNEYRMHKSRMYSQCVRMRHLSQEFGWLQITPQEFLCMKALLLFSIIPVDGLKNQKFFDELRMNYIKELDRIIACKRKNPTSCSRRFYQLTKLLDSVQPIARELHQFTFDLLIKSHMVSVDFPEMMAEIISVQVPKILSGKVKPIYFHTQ
Source text: as §1

[6] = test system: cytokine IL-8; experiment: Inhibition of LPS-triggered IL-8 secretion in THP-1 cells (ELISA of supernatant); assay type: cell-based; details: Homo sapiens
Procedure: The concentration of the cytokines was determined in the supernatant by means of commercially available ELISA kits.

| Compound | IC50 [1] | IC50 [2] | IC50 [3] | IC50 [4] | IC50 [5] | IC50 ([6]; LPS-triggered IL-8 secretion, read-out: IC50(IL8)) | Emax ([6]; efficacy of IL-8 inhibition, LPS, read-out: eff. relative to dexamethasone) |
| --- | --- | --- | --- | --- | --- | --- | --- |
| CC(C)c1ccc2c(c1O)C(C)(C)CC(O)(C(F)(F)F)C2Nc1cccc2c1ccc(=O)n2-c1ccc(F)nc1 (stereo not shown) [Example 2, 5-{[2,5-Dihydroxy-6-isopropyl-4,4-dimethyl-2-(trifluoromethyl)-1,2,3,4-tetrahydronaphthalene-1-yl]amino}-1-(6-fluoropyridine-3-yl)-1H-quinoline-2-one] | > 1000 nM | > 1000 nM | 32 nM | > 1000 nM | > 1000 nM |  |  |
| COc1c(C(C)C)ccc2c1C(C)(C)CC(O)(C(F)(F)F)C2Nc1cccc2c1ccc(=O)n2-c1ccc(F)nc1 (stereo not shown) [Example 1, 5-{[2-Hydroxy-6-isopropyl-5-methoxy-4,4-dimethyl-2-(trifluoromethyl)-1,2,3,4-tetrahydronaphthalene-1-yl]amino}-1-(6-fluoropyridine-3-yl)-1H-quinoline-2-one] |  |  |  |  |  | 30 nM | 84.1% |
